From US20030181527A1, “Novel formulations of alpha-2,4-disulfophenyl-n-tert-butylnitrone” (priority 2000, published 2003)

How the values were obtained:
Ps. aeruginosa = assay: Antimicrobial efficacy (European Pharmacopoeia 2000, Chapter 5.1.3); assay type: cell-based
Experimental: (§1) The antimicrobial efficacy was tested for three different solutions:
(§2) i) α-(2,4-disulfophenyl)-N-tert-butylnitrone disodium salt, 10 mg/ml;
(§3) ii) α-(2,4-disulfophenyl)-N-tert-butylnitrone disodium salt, 400 mg/ml; and
(§4) iii) a carbonate buffer control.
(§5) The tests were performed according to European Pharmacopoeia 2000, Chapter 5.1.3, pages 259 to 260. Seven 10 ml vials were inoculated, one per test organism. During the tests, the vials were stored at controlled room temperature and protected from light. At different time intervals, samples were withdrawn and after appropriate dilutions the numbers of viable microorganisms (colony forming units per ml, CFU/ml) were determined using standard plate count procedures.

A. niger = assay: as above; assay type: cell-based
Experimental: as §1, §2, §3, §4, §5

C. albicans = assay: as above; assay type: cell-based
Experimental: as §1, §2, §3, §4, §5

[1] = Effect of concentration on stability, carbonate-buffered solutions, 40 days +40° C.; assay type: physicochemical; conditions: 50 mM sodium hydrogen carbonate; for Final Amount of Aldehyde (II): 40 days +40° C./75% RH
Experimental: In an experiment, aqueous solutions of three different concentrations of α-(2,4-disulfophenyl)-N-tert-butylnitrone disodium salt buffered with sodium hydrogen carbonate (50 mM) were dispensed into 20 ml glass vials, sealed, and then stored for 40 days at +40° C. and 75% relative humidity.

[2] = Shelf life of the preferred concentrate formulation; assay type: physicochemical; conditions: 400 mg/ml, 5 to 50 mM disodium hydrogen phosphate, pH 8.5, nitrogen purged, sealed 20 ml vials

**Q.** For CC(C)(C)[N+]([O-])=Cc1ccc(S(=O)(=O)[O-])cc1S(=O)(=O)[O-].[Na+].[Na+] [α-(2,4-disulfophenyl)-N-tert-butylnitrone disodium salt], which “Number of CFUs per ml - Time after Inoculation” value (from here on “Number of CFUs per ml - Time”) (Ps. aeruginosa; 10 mg/ml, 6 h) is on record?
**A.** The value was 4.0 × 10^4 CFUs per ml.

**Q.** And the “Number of CFUs per ml - Time” value (Ps. aeruginosa; 10 mg/ml, 24 h)?
**A.** Its value is 4.0 × 10^2 CFUs per ml.

**Q.** And the “Number of CFUs per ml - Time” value (Ps. aeruginosa; 10 mg/ml, 48 h)?
**A.** The value was 3.5 × 10^2 CFUs per ml.

**Q.** What about the “Number of CFUs per ml - Time” value (Ps. aeruginosa; 10 mg/ml, 7 days) of the same molecule?
**A.** The value was “≦10 CFUs per ml”.

**Q.** And the “Number of CFUs per ml - Time” value (Ps. aeruginosa; 10 mg/ml, 14 days)?
**A.** The value was under 1 CFUs per ml.

**Q.** What about the “Number of CFUs per ml - Time” value (Ps. aeruginosa; 10 mg/ml, 21 days) of the same molecule?
**A.** The value was under 1 CFUs per ml.

**Q.** What about the “Number of CFUs per ml - Time” value (Ps. aeruginosa; 10 mg/ml, 28 days) of the same molecule?
**A.** The value was under 1 CFUs per ml.

**Q.** What about the “Number of CFUs per ml - Time” value (Ps. aeruginosa; 10 mg/ml, <1 min) of the same molecule?
**A.** Its value is 1.5 × 10^6 CFUs per ml.

**Q.** What about the “Number of CFUs per ml - Time” value (Ps. aeruginosa; 400 mg/ml, 6 h) of the same molecule?
**A.** The value was 1.4 × 10^1 CFUs per ml.

**Q.** What about the “Number of CFUs per ml - Time” value (Ps. aeruginosa; 400 mg/ml, 24 h) of the same molecule?
**A.** The value was under 1 CFUs per ml.

**Q.** What about the “Number of CFUs per ml - Time” value (Ps. aeruginosa; 400 mg/ml, 48 h) of the same molecule?
**A.** Its value is under 1 CFUs per ml.

**Q.** And the “Number of CFUs per ml - Time” value (Ps. aeruginosa; 400 mg/ml, 7 days)?
**A.** The value was under 1 CFUs per ml.

**Q.** What about the “Number of CFUs per ml - Time” value (Ps. aeruginosa; 400 mg/ml, 14 days) of the same molecule?
**A.** Its value is under 1 CFUs per ml.

**Q.** And the “Number of CFUs per ml - Time” value (Ps. aeruginosa; 400 mg/ml, 21 days)?
**A.** Its value is under 1 CFUs per ml.

**Q.** What about the “Number of CFUs per ml - Time” value (Ps. aeruginosa; 400 mg/ml, 28 days) of the same molecule?
**A.** Its value is under 1 CFUs per ml.

**Q.** What about the “Number of CFUs per ml - Time” value (Ps. aeruginosa; 400 mg/ml, <1 min) of the same molecule?
**A.** The value was 1.1 × 10^4 CFUs per ml.

**Q.** And the “Reduction in colony forming units per ml (CFU/ml)” value (Ps. aeruginosa; 400 mg/ml, within 6 hours)?
**A.** The value was ≥ 10^3 fold.

**Q.** What about the “Number of CFUs per ml - Time” value (A. niger; 10 mg/ml, 6 h) of the same molecule?
**A.** Its value is 4.5 × 10^4 CFUs per ml.

**Q.** What about the “Number of CFUs per ml - Time” value (A. niger; 10 mg/ml, 24 h) of the same molecule?
**A.** Its value is 5.0 × 10^4 CFUs per ml.

**Q.** What about the “Number of CFUs per ml - Time” value (A. niger; 10 mg/ml, 48 h) of the same molecule?
**A.** Its value is 5.5 × 10^4 CFUs per ml.

**Q.** And the “Number of CFUs per ml - Time” value (A. niger; 10 mg/ml, 7 days)?
**A.** The value was 3.0 × 10^4 CFUs per ml.

**Q.** And the “Number of CFUs per ml - Time” value (A. niger; 10 mg/ml, 14 days)?
**A.** Its value is 1.0 × 10^3 CFUs per ml.

**Q.** And the “Number of CFUs per ml - Time” value (A. niger; 10 mg/ml, 21 days)?
**A.** Its value is 1.0 × 10^2 CFUs per ml.

**Q.** And the “Number of CFUs per ml - Time” value (A. niger; 10 mg/ml, 28 days)?
**A.** The value was “≦10 CFUs per ml”.

**Q.** And the “Number of CFUs per ml - Time” value (A. niger; 10 mg/ml, <1 min)?
**A.** The value was 5.0 × 10^4 CFUs per ml.

**Q.** And the “Number of CFUs per ml - Time” value (A. niger; 400 mg/ml, 6 h)?
**A.** The value was 5.9 × 10^4 CFUs per ml.

**Q.** What about the “Number of CFUs per ml - Time” value (A. niger; 400 mg/ml, 24 h) of the same molecule?
**A.** Its value is 3.4 × 10^4 CFUs per ml.

**Q.** And the “Number of CFUs per ml - Time” value (A. niger; 400 mg/ml, 48 h)?
**A.** Its value is 1.7 × 10^4 CFUs per ml.

**Q.** And the “Number of CFUs per ml - Time” value (A. niger; 400 mg/ml, 7 days)?
**A.** Its value is 1.9 × 10^2 CFUs per ml.

**Q.** And the “Number of CFUs per ml - Time” value (A. niger; 400 mg/ml, 14 days)?
**A.** The value was under 1 CFUs per ml.

**Q.** And the “Number of CFUs per ml - Time” value (A. niger; 400 mg/ml, 21 days)?
**A.** The value was under 1 CFUs per ml.

**Q.** And the “Number of CFUs per ml - Time” value (A. niger; 400 mg/ml, 28 days)?
**A.** The value was under 1 CFUs per ml.

**Q.** What about the “Number of CFUs per ml - Time” value (A. niger; 400 mg/ml, <1 min) of the same molecule?
**A.** Its value is 1.0 × 10^5 CFUs per ml.

**Q.** And the “Number of CFUs per ml - Time” value (C. albicans; 10 mg/ml, 6 h)?
**A.** The value was 7.0 × 10^5 CFUs per ml.

**Q.** And the “Number of CFUs per ml - Time” value (C. albicans; 10 mg/ml, 24 h)?
**A.** The value was 6.5 × 10^5 CFUs per ml.

**Q.** What about the “Number of CFUs per ml - Time” value (C. albicans; 10 mg/ml, 48 h) of the same molecule?
**A.** Its value is 6.5 × 10^5 CFUs per ml.

**Q.** And the “Number of CFUs per ml - Time” value (C. albicans; 10 mg/ml, 7 days)?
**A.** Its value is under 10 CFUs per ml.

**Q.** What about the “Number of CFUs per ml - Time” value (C. albicans; 10 mg/ml, 14 days) of the same molecule?
**A.** The value was under 1 CFUs per ml.

**Q.** What about the “Number of CFUs per ml - Time” value (C. albicans; 10 mg/ml, 21 days) of the same molecule?
**A.** Its value is under 1 CFUs per ml.

**Q.** And the “Number of CFUs per ml - Time” value (C. albicans; 10 mg/ml, 28 days)?
**A.** The value was under 1 CFUs per ml.

**Q.** What about the “Number of CFUs per ml - Time” value (C. albicans; 10 mg/ml, <1 min) of the same molecule?
**A.** Its value is 6.5 × 10^5 CFUs per ml.

**Q.** What about the “Number of CFUs per ml - Time” value (C. albicans; 400 mg/ml, 6 h) of the same molecule?
**A.** Its value is 3.1 × 10^4 CFUs per ml.

**Q.** And the “Number of CFUs per ml - Time” value (C. albicans; 400 mg/ml, 24 h)?
**A.** Its value is 6.1 × 10^3 CFUs per ml.

**Q.** And the “Number of CFUs per ml - Time” value (C. albicans; 400 mg/ml, 48 h)?
**A.** Its value is under 1 CFUs per ml.

**Q.** What about the “Number of CFUs per ml - Time” value (C. albicans; 400 mg/ml, 7 days) of the same molecule?
**A.** The value was under 1 CFUs per ml.

**Q.** What about the “Number of CFUs per ml - Time” value (C. albicans; 400 mg/ml, 14 days) of the same molecule?
**A.** The value was under 1 CFUs per ml.

**Q.** And the “Number of CFUs per ml - Time” value (C. albicans; 400 mg/ml, 21 days)?
**A.** The value was under 1 CFUs per ml.

**Q.** And the “Number of CFUs per ml - Time” value (C. albicans; 400 mg/ml, 28 days)?
**A.** The value was under 1 CFUs per ml.

**Q.** And the “Number of CFUs per ml - Time” value (C. albicans; 400 mg/ml, <1 min)?
**A.** Its value is 1.6 × 10^5 CFUs per ml.

**Q.** And the “Final Amount of Aldehyde (II)” value ([1]; 200 mg/ml)?
**A.** The value was 3.5 Area %.

**Q.** And the “Initial Amount of Aldehyde (II)” value ([1]; 200 mg/ml)?
**A.** Its value is 1.7 Area %.

**Q.** What about the “Final Amount of Aldehyde (II)” value ([1]; 300 mg/ml) of the same molecule?
**A.** Its value is 3.2 Area %.

**Q.** What about the “Initial Amount of Aldehyde (II)” value ([1]; 300 mg/ml) of the same molecule?
**A.** The value was 1.7 Area %.

**Q.** What about the “Final Amount of Aldehyde (II)” value ([1]; 400 mg/ml) of the same molecule?
**A.** Its value is 2.9 Area %.

**Q.** And the “Initial Amount of Aldehyde (II)” value ([1]; 400 mg/ml)?
**A.** The value was 1.8 Area %.

**Q.** What about the “Remains in useable condition” value ([2]; stored at room temperature) of the same molecule?
**A.** Its value is “at least 6 months”.

**Q.** And the Shelf life ([2]; stored refrigerated (approximately 2 to 8° C.))?
**A.** Its Shelf life is “at least 24 months”.
